Assay results reported in US20070077238A1, “Production of organic and inorganic selenium compounds by lactic acid bacteria” (priority 2005, published 2007).

Tested on: lactic acid bacteria strains
Assay: Growth of lactic acid bacteria strains on media containing selenate or selenite
Type: cell-based, lactic acid bacteria from gastrointestinal tracts of chicken
Settings: 250 ppm in media
Experimental: Putative strains of LAB were grown on MRS agar plates containing various concentrations of selenate and selenite.

Compound	Number of lactic acid bacteria strains grown (percentage of bacterial cells that grew) (incubation time 12 h) [percentage]	Number of lactic acid bacteria strains grown (percentage of bacterial cells that grew) (incubation time 24 h) [percentage]	Number of lactic acid bacteria strains grown (percentage of bacterial cells that grew) (incubation time 48 h) [percentage]	Number of lactic acid bacteria strains grown (percentage of bacterial cells that grew) (incubation time >48 h) [percentage]
O=[Se](=O)([O-])[O-].[Na+].[Na+] [Selenate, sodium selenate]	75.3	14.4	10.3	0
O=[Se](O)O [Selenite, sodium selenite]	62.9	2.1	24.7	10.3
